Active and inactive are the calls of the source. The calls are words filed in the database; no cut-off is given here.
Experiments:
[1] = molecular target: Cellular tumor antigen p53 (Homo sapiens) (UniProt P04637); assay: Induction of wild type p53-dependent growth suppression of human HCT116 cells; format: cell-based; details: HCT-116
[2] = test system: Cellular tumor antigen p53 (Homo sapiens), P04637 [UNDEFINED MUTATION]; assay: Induction of p53 mutant-dependent growth suppression of human HCT15 cells; format: cell-based; details: HCT-15
Sequence of Cellular tumor antigen p53 (Homo sapiens), P04637 [UNDEFINED MUTATION] (P04637 whole entry, looked up, change not shown): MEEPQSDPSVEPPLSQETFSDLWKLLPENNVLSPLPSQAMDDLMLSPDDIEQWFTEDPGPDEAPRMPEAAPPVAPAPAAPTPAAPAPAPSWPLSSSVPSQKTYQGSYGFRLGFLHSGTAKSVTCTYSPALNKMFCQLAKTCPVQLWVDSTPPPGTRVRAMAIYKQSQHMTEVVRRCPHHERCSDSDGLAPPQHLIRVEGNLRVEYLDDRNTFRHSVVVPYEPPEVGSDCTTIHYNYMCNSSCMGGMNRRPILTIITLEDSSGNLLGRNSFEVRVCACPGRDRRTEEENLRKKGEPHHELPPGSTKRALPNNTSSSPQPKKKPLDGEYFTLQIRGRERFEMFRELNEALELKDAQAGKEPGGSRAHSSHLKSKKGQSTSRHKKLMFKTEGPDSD

[3] = molecular target: Cellular tumor antigen p53 (Homo sapiens) (UniProt P04637); assay: Induction of p53-dependent growth suppression of human LNZTA3 cells after 72 hrs by MTT assay; format: cell-based
[4] = test system: Cellular tumor antigen p53 (Homo sapiens), P04637 [UNDEFINED MUTATION]; assay: Induction of p53 mutant-dependent growth suppression of human […] cells
[5] = test system: Cellular tumor antigen p53 (Homo sapiens), P04637 [UNDEFINED MUTATION]; assay: Induction of p53 mutant-dependent growth suppression of human MKN7 cells; format: cell-based; details: MKN-7
[6] = molecular target: Cellular tumor antigen p53 (Homo sapiens) (UniProt P04637); assay: Induction of wild type p53-dependent growth suppression of human RKO cells; format: cell-based
[7] = molecular target: Cellular tumor antigen p53 (Homo sapiens) (UniProt P04637); assay: Induction of wild type p53-dependent growth suppression of human MKN45 cells; format: cell-based; details: MKN-45
[8] = molecular target: Cellular tumor antigen p53 (Homo sapiens) (UniProt P04637); assay: Induction of wild type p53-dependent growth suppression of human MCF7 cells; format: cell-based
[9] = test system: LNZTA3; assay: (§1) Cytotoxicity against p53-deficient human LNZTA3 cells assessed as growth inhibition after 72 hrs by MTT assay; format: functional, cell-based
[10] = as §1; format: functional, cell-based; details: LNZTA3, 72 h
[11] = test system: LNZTA3; assay: Cytotoxicity against p53-deficient human LNZTA3 cells assessed as growth inhibition at >100 uM after 72 hrs by MTT assay; format: functional, cell-based

Sequence of Cellular tumor antigen p53 (Homo sapiens) (P04637 whole entry, looked up): as the sequence (P04637 whole entry, looked up, change not shown) above

| Activity [1] | Activity [2] | Activity [3] | Activity [4] | Activity [5] | Activity [6] | Activity [7] | Activity [8] | Compound | growth inhibition (GI) [9] | IC50 [10] | growth inhibition (GI) [11] |
| --- | --- | --- | --- | --- | --- | --- | --- | --- | --- | --- | --- |
| Active | Active | Active | Active | Active | Active | Active | Active | CCCCC[C@H](O)c1c(O[C@@H]2O[C@@H]([C@H](O)CO)[C@H](O)[C@H]2O)cc2c(c1O)C(=O)c1c(O)cc(O)cc1C2=O | Active | – | – |
| Active | Active | – | Active | Active | Active | Active | Active | CCCCC[C@H](O[C@@H]1O[C@@H]([C@H](O)CO)[C@H](O)[C@H]1OC(C)=O)c1c(O)cc2c(c1O)C(=O)c1c(O)cc(O)cc1C2=O | – | 32 µM | – |
| Active | Active | Active | Active | Active | Active | Active | Active | CC(=O)CCC[C@H](O[C@@H]1O[C@@H]([C@H](O)CO)[C@H](O)[C@H]1O)c1c(O)cc2c(c1O)C(=O)c1c(O)cc(O)cc1C2=O | – | – | inactive |
| Active | Active | Active | Active | Active | Active | Active | Active | O=C1c2cc(O[C@@H]3O[C@@H]([C@H](O)CO)[C@H](O)[C@H]3O)cc(O)c2C(=O)c2c1cc1c(c2O)[C@@H]2CCO[C@@H]2O1 | Active | – | – |
| Active | Active | – | Active | Active | Active | Active | Active | CCCCC[C@H](O[C@@H]1O[C@@H]([C@H](O)CO)[C@H](O)[C@H]1O)c1c(O)cc2c(c1O)C(=O)c1c(O)cc(O)cc1C2=O | – | 32 µM | – |

| Compound | Activity [1] | Activity [2] | Activity [3] | Activity [4] | Activity [5] | Activity [6] | Activity [7] | Activity [8] | growth inhibition (GI) [9] | IC50 [10] | growth inhibition (GI) [11] |
| --- | --- | --- | --- | --- | --- | --- | --- | --- | --- | --- | --- |
| CCCCC[C@H](O)c1c(O)cc2c(c1O)C(=O)c1c(O)cc(O)cc1C2=O | – | – | Active | – | – | – | – | – | – | – | – |

— ChEMBL document CHEMBL3421582, “Quinofuracins A-E, produced by the fungus Staphylotrichum boninense PF1444, show p53-dependent growth suppression” (J Nat Prod, 2015)
